The supplement of paper PMC10627819
Values after ≈ are worked out from the molar mass of the structure shown.

What was measured:
B. subtilis 168 [1] = experiment: Bliss interaction score (quartile over a dose matrix) (fitness difference); higher = more antagonism (negative = synergy)
Outline: (§1)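 Quartiles of the Bliss score were taken over technical, biological and donor/recipient replicates. That score is observed fitness minus the product of the single-drug fitness values, which were inferred from combination data. Fitness itself is OD595 at entry into stationary phase divided by the plate's robust no-drug mean, with a cap at 1.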

S. aureus Newman [2] = experiment: as above
Outline: as §1

S. pneumoniae D39V [3] = experiment: as above
Outline: as §1

S. aureus DSM 20231 [4] = experiment: as above
Outline: as §1

B. subtilis 168 [5] = experiment: fitness (endpoint OD595 vs no drug) (fraction); higher = more growth
Outline: (§2)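 In 384-well plates at 37 °C, cultures began at OD595 0.01 in 30 µl, with 55 µl used for S. pneumoniae. OD595 readings every 30 min for 14 h were corrected by the first reading. Fitness divides the stationary-phase transition optical density by the robust mean of no-drug control wells. The result is capped at 1.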

S. aureus Newman [6] = experiment: as above
Outline: as §2

S. pneumoniae D39V [7] = experiment: as above
Outline: as §2

S. aureus DSM 20231 [8] = experiment: as above
Outline: as §2

B. subtilis 168 [9] = test system: B. subtilis 168
S. aureus Newman [10] = test system: S. aureus Newman
S. pneumoniae D39V [11] = test system: S. pneumoniae D39V
S. aureus DSM 20231 [12] = test system: S. aureus DSM 20231
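Throughout, for Bliss interaction score (quartile over a dose matrix): first quartile when negative (synergy) and third quartile when positive (antagonism).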

COc1c(N2C[C@@H]3CCCN[C@@H]3C2)c(F)cc2c(=O)c(C(=O)O)cn(C3CC3)c12 [Moxifloxacin] + Cc1onc(-c2ccccc2)c1C(=O)N[C@@H]1C(=O)N2[C@@H]1SC(C)(C)[C@@H]2C(=O)O [Oxacillin]
Settings	Bliss interaction score
B. subtilis 168 [1]	0.0214
S. aureus DSM 20231 [4]	0.0441
S. aureus Newman [2]	-0.0642
S. pneumoniae D39V [3]	0.0911

Settings	fitness
B. subtilis 168 [5], first compound 0.0312 µg/mL, partner 0.0078 µg/mL	0.064
B. subtilis 168 [5], first compound 0.0312 µg/mL, partner 0.0155 µg/mL	0.0573
B. subtilis 168 [5], first compound 0.0312 µg/mL, partner 0.031 µg/mL	0.0475
B. subtilis 168 [5], first compound 0.0625 µg/mL, partner 0.0078 µg/mL	0.0466
B. subtilis 168 [5], first compound 0.0625 µg/mL, partner 0.0155 µg/mL	0.037
B. subtilis 168 [5], first compound 0.0625 µg/mL, partner 0.031 µg/mL	0.0491
B. subtilis 168 [5], first compound 0.125 µg/mL, partner 0.0078 µg/mL	0.0548
B. subtilis 168 [5], first compound 0.125 µg/mL, partner 0.0155 µg/mL	0.0482
B. subtilis 168 [5], first compound 0.125 µg/mL, partner 0.031 µg/mL	0.0479
B. subtilis 168 [5], first compound 2 µg/mL, partner 0.002 µg/mL	0.0356
B. subtilis 168 [5], first compound 2 µg/mL, partner 0.004 µg/mL	0.0464
B. subtilis 168 [5], first compound 2 µg/mL, partner 0.008 µg/mL	0.0465
B. subtilis 168 [5], first compound 4 µg/mL, partner 0.002 µg/mL	0.0347
B. subtilis 168 [5], first compound 4 µg/mL, partner 0.004 µg/mL	0.0433
B. subtilis 168 [5], first compound 4 µg/mL, partner 0.008 µg/mL	0.0406
B. subtilis 168 [5], first compound 8 µg/mL, partner 0.002 µg/mL	0.0147
B. subtilis 168 [5], first compound 8 µg/mL, partner 0.004 µg/mL	0.021
B. subtilis 168 [5], first compound 8 µg/mL, partner 0.008 µg/mL	0.0219
S. aureus DSM 20231 [8], first compound 0.0075 µg/mL, partner 0.0156 µg/mL	0.665
S. aureus DSM 20231 [8], first compound 0.0075 µg/mL, partner 0.0312 µg/mL	0.623
S. aureus DSM 20231 [8], first compound 0.0075 µg/mL, partner 0.0625 µg/mL	0.483
S. aureus DSM 20231 [8], first compound 0.015 µg/mL, partner 0.0156 µg/mL	0.621
S. aureus DSM 20231 [8], first compound 0.015 µg/mL, partner 0.0312 µg/mL	0.576
S. aureus DSM 20231 [8], first compound 0.015 µg/mL, partner 0.0625 µg/mL	0.475
S. aureus DSM 20231 [8], first compound 0.03 µg/mL, partner 0.0156 µg/mL	0.561
S. aureus DSM 20231 [8], first compound 0.03 µg/mL, partner 0.0312 µg/mL	0.527
S. aureus DSM 20231 [8], first compound 0.03 µg/mL, partner 0.0625 µg/mL	0.417
S. aureus Newman [6], first compound 0.0075 µg/mL, partner 0.0156 µg/mL	0.676
S. aureus Newman [6], first compound 0.0075 µg/mL, partner 0.0312 µg/mL	0.633
S. aureus Newman [6], first compound 0.0075 µg/mL, partner 0.0625 µg/mL	0.515
S. aureus Newman [6], first compound 0.015 µg/mL, partner 0.0156 µg/mL	0.575
S. aureus Newman [6], first compound 0.015 µg/mL, partner 0.0312 µg/mL	0.487
S. aureus Newman [6], first compound 0.015 µg/mL, partner 0.0625 µg/mL	0.417
S. aureus Newman [6], first compound 0.03 µg/mL, partner 0.0156 µg/mL	0.116
S. aureus Newman [6], first compound 0.03 µg/mL, partner 0.0312 µg/mL	0.0437
S. aureus Newman [6], first compound 0.03 µg/mL, partner 0.0625 µg/mL	0.0665
S. pneumoniae D39V [7], first compound 0.0037 µg/mL, partner 0.01 µg/mL	0.885
S. pneumoniae D39V [7], first compound 0.0037 µg/mL, partner 0.02 µg/mL	0.769
S. pneumoniae D39V [7], first compound 0.0037 µg/mL, partner 0.04 µg/mL	0.191
S. pneumoniae D39V [7], first compound 0.005 µg/mL, partner 0.01 µg/mL	0.991
S. pneumoniae D39V [7], first compound 0.005 µg/mL, partner 0.02 µg/mL	1
S. pneumoniae D39V [7], first compound 0.0075 µg/mL, partner 0.01 µg/mL	0.9
S. pneumoniae D39V [7], first compound 0.0075 µg/mL, partner 0.02 µg/mL	0.784
S. pneumoniae D39V [7], first compound 0.0075 µg/mL, partner 0.04 µg/mL	0.198
S. pneumoniae D39V [7], first compound 0.01 µg/mL, partner 0.01 µg/mL	0.993
S. pneumoniae D39V [7], first compound 0.01 µg/mL, partner 0.02 µg/mL	0.983
S. pneumoniae D39V [7], first compound 0.015 µg/mL, partner 0.01 µg/mL	0.84
S. pneumoniae D39V [7], first compound 0.015 µg/mL, partner 0.02 µg/mL	0.814
S. pneumoniae D39V [7], first compound 0.015 µg/mL, partner 0.04 µg/mL	0.276
S. pneumoniae D39V [7], first compound 0.02 µg/mL, partner 0.01 µg/mL	0.993
S. pneumoniae D39V [7], first compound 0.02 µg/mL, partner 0.02 µg/mL	0.978

fitness, one replicate
Settings	partner 0.0156 µg/mL	partner 0.0312 µg/mL	partner 0.0625 µg/mL	partner 0.075 µg/mL	partner 0.15 µg/mL	partner 0.3 µg/mL
B. subtilis 168 [5], first compound 0.0312 µg/mL	–	–	–	0.0346	0.0314	0.0247
B. subtilis 168 [5], first compound 0.0625 µg/mL	–	–	–	0.0324	0.0252	0.0441
B. subtilis 168 [5], first compound 0.125 µg/mL	–	–	–	0.0269	0.0127	0.018
S. aureus DSM 20231 [8], first compound 0.06 µg/mL	0.628	0.559	0.524	–	–	–
S. aureus DSM 20231 [8], first compound 0.12 µg/mL	0.441	0.379	0.37	–	–	–

O=C1CN(/N=C/c2ccc([N+](=O)[O-])o2)C(=O)N1 [Nitrofurantoin]
S. pneumoniae D39V [7]
Settings	fitness
2 µg/mL	0.941
4 µg/mL	0.888
8 µg/mL	0.724

Settings	MIC [µg/mL]
B. subtilis 168 [9]	16 (≈ 67.2 µM)
S. aureus DSM 20231 [12]	8.89 (≈ 37.3 µM)
S. aureus Newman [10]	10 (≈ 42 µM)
S. pneumoniae D39V [11]	16 (≈ 67.2 µM)

C/C(=C\C(=O)OCCCCCCCCC(=O)O)C[C@@H]1OC[C@H](C[C@@H]2O[C@H]2[C@@H](C)[C@H](C)O)[C@@H](O)[C@H]1O [Pseudomonic acid]
S. pneumoniae D39V [7]
Settings	fitness
0.03 µg/mL	0.971
0.06 µg/mL	0.822
0.12 µg/mL	0.443

Settings	MIC [µg/mL]
S. pneumoniae D39V [11]	0.25 (≈ 0.499 µM)

CCCCCCCCCC(=O)N[C@H]1[C@H](Oc2c3cc4cc2Oc2ccc(cc2Cl)[C@@H](O[C@@H]2O[C@H](CO)[C@@H](O)[C@H](O)[C@H]2NC(C)=O)[C@@H]2NC(=O)[C@H](NC(=O)[C@@H]4NC(=O)[C@H]4NC(=O)[C@@H](Cc5ccc(c(Cl)c5)O3)NC(=O)[C@H](N)c3ccc(O)c(c3)Oc3cc(O)cc4c3)c3ccc(O)c(c3)-c3c(O[C@H]4O[C@H](CO)[C@@H](O)[C@H](O)[C@@H]4O)cc(O)cc3[C@@H](C(=O)O)NC2=O)O[C@H](CO)[C@@H](O)[C@@H]1O [Teicoplanin]
fitness, main component drawn
Settings	0.1562 µg/mL	0.3125 µg/mL	0.625 µg/mL	1.25 µg/mL
S. aureus DSM 20231 [8]	≥ 1	≥ 1	≥ 1	≥ 1
S. aureus Newman [6]	≥ 1	≥ 1	≥ 1	–

main component drawn
Settings	MIC [µg/mL]
S. aureus DSM 20231 [12]	0.7 (≈ 0.372 µM)
S. aureus Newman [10]	0.7 (≈ 0.372 µM)
S. pneumoniae D39V [11]	0.062 (≈ 0.033 µM)

COc1cc(Cc2cnc(N)nc2N)cc(OC)c1OC [Trimethoprim]
fitness
Settings	0.125 µg/mL	0.25 µg/mL	0.5 µg/mL	1 µg/mL	2 µg/mL
B. subtilis 168 [5]	0.623	0.478	0.45	0.334	0.31
S. aureus DSM 20231 [8]	0.8	0.662	0.143	–	–
S. aureus Newman [6]	0.857	0.725	0.248	–	–
S. pneumoniae D39V [7]	–	–	0.924	0.658	0.306

Settings	MIC [µg/mL]
B. subtilis 168 [9]	2.5 (≈ 8.61 µM)
S. pneumoniae D39V [11]	4 (≈ 13.8 µM)

CN[C@H](CC(C)C)C(=O)N[C@H]1C(=O)N[C@@H](CC(N)=O)C(=O)N[C@H]2C(=O)N[C@H]3C(=O)N[C@H](C(=O)N[C@H](C(=O)O)c4cc(O)cc(O)c4-c4cc3ccc4O)[C@H](O)c3ccc(c(Cl)c3)Oc3cc2cc(c3O[C@@H]2O[C@H](CO)[C@@H](O)[C@H](O)[C@H]2O[C@H]2C[C@](C)(N)[C@H](O)[C@H](C)O2)Oc2ccc(cc2Cl)[C@H]1O [Vancomycin]
Settings	fitness
B. subtilis 168 [5], 0.0468 µg/mL	0.997
B. subtilis 168 [5], 0.0935 µg/mL	0.924
B. subtilis 168 [5], 0.0938 µg/mL	0.853
B. subtilis 168 [5], 0.187 µg/mL	0.0481
B. subtilis 168 [5], 0.1875 µg/mL	0.169
B. subtilis 168 [5], 0.375 µg/mL	0.0404
S. aureus DSM 20231 [8], 0.1875 µg/mL	≥ 1
S. aureus DSM 20231 [8], 0.375 µg/mL	≥ 1
S. aureus DSM 20231 [8], 0.5 µg/mL	0.981
S. aureus DSM 20231 [8], 0.75 µg/mL	≥ 1
S. aureus DSM 20231 [8], 1 µg/mL	0.977
S. aureus DSM 20231 [8], 2 µg/mL	0.992
S. aureus Newman [6], 0.1875 µg/mL	≥ 1
S. aureus Newman [6], 0.375 µg/mL	0.99
S. aureus Newman [6], 0.75 µg/mL	0.999
S. pneumoniae D39V [7], 0.125 µg/mL	0.97
S. pneumoniae D39V [7], 0.25 µg/mL	0.489
S. pneumoniae D39V [7], 0.5 µg/mL	0.159

Settings	MIC [µg/mL]
B. subtilis 168 [9]	0.375 (≈ 0.259 µM)
S. pneumoniae D39V [11]	0.3 (≈ 0.207 µM)
